The source of these data is patent US20240083944A1 (priority 2021, published 2024).

The subject of the assay is SARS-CoV-2 pseudotyped HIV-1 virions, D614G.

Starred links: 1 amine or outer side, 2 acyl side, 3 side chain; linkers in the order of their positions; H or OH if unused. Positions of bridges follow the written chain, without caps; N, C: chain ends. Non-standard residues stand in square brackets, D forms with d. Chains are numbered I, II in the order given. X2 = O=C(CCOCCN(CCOCCC(=O)NCCOCCOCCOCCOCCOCCOCCOCCOCCOCCOCCn1cc(CCC(=O)[*:2])nn1)CCOCCC(=O)NCCOCCOCCOCCOCCOCCOCCOCCOCCOCCOCCn1cc(CCC(=O)[*:3])nn1)NCCOCCOCCOCCOCCOCCOCCOCCOCCOCCOCCn1cc(CCC(=O)[*:1])nn1; X1 = C(c1nc(C[*:2])nc(C[*:3])n1)[*:1]; tBuAla = CC(C)(C)C[C@H](N)C(=O)O; Agb = N=C(N)NCC[C@H](N)C(=O)O

“I: Ac-CPYVAG[Agb][dA]TCL[tBuAla]CK-NH2 / II: Ac-CPYVAG[Agb][dA]TCL[tBuAla]CK-NH2 / III: Ac-CPYVAG[Agb][dA]TCL[tBuAla]CK-NH2 (linker I:1-I:10-I:13, II:1-II:10-II:13, III:1-III:10-III:13 via X1; linker I:14-II:14-III:14 via X2) [BCY17021]” displayed an IC50 of 500 pM.
